Assays:
Format in all cases: in vivo
pale smartweed (Po) [1] = test: Test Example 2: herbicidal effects by upland field soil treatment; settings: 100 g of the active ingredient per 10 ares, evaluated on the 21st day after application;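 also: grade of growth control; 5 = at least 90%; 4 = 70 to 90%; 3 = 50 to 70%; 2 = 30 to 50%; 1 = 10 to 30%; 0 = under 10%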
From the text: (§1) (Test on Herbicidal Effects by Upland Field Soil Treatment)

rice flatsedge (Ci) [2] = test: as above; settings: 100 g of the active ingredient per 10 ares, evaluated on the 21st day after application
From the text: as §1

Digitaria ciliaris (Di) = test: as above; settings: 100 g of the active ingredient per 10 ares, evaluated on the 21st day after application;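 also: grade of growth control; 5 = at least 90%; 4 = 70 to 90%; 3 = 50 to 70%; 2 = 30 to 50%; 1 = 10 to 30%; 0 = under 10%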
From the text: as §1

barnyardgrass (Ec) [3] = test: as above; settings: 100 g of the active ingredient per 10 ares, evaluated on the 21st day after application
From the text: as §1

[4] = tested on: common lambsquarters (Ch); test: as above; settings: 100 g of the active ingredient per 10 ares, evaluated on the 21st day after application
From the text: as §1

slender amaranth (Am) [5] = test: as above; settings: 100 g of the active ingredient per 10 ares, evaluated on the 21st day after application
From the text: as §1

bulrush (Sc) = test: Test Example 1: herbicidal effects by paddy field soil treatment; settings: 100 g of the active ingredient per 10 ares, 21st day after the application, index 0-5 of Table 47;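 also: grade of growth control; 5 = at least 90%; 4 = 70 to 90%; 3 = 50 to 70%; 2 = 30 to 50%; 1 = 10 to 30%; 0 = under 10%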
Method: (§2) (Test on Herbicidal Effects by Paddy Field Soil Treatment)
(§3) In a plastic pot (surface area: 100 cm^2) filled with paddy field soil, barnyardgrass (Ec), monochoria (Mo) and bulrush (Sc) were sown after puddling and leveling, and flooded to a water depth of 3 cm. […] The dose was 100 g of the active ingredient per 10 ares. The plants were then cultured in a green house, and the evaluation of the herbicidal effects was conducted on the 21st day after the application in accordance with the standards as identified in Table 47.

monochoria (Mo) = test: as above; settings: 100 g of the active ingredient per 10 ares, 21st day after the application, index 0-5 of Table 47;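 also: grade of growth control; 5 = at least 90%; 4 = 70 to 90%; 3 = 50 to 70%; 2 = 30 to 50%; 1 = 10 to 30%; 0 = under 10%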
Method: as §2, §3

barnyardgrass (Ec) [6] = test: as above; settings: 100 g of the active ingredient per 10 ares, 21st day after the application, index 0-5 of Table 47
Method: as §2, §3

pale smartweed (Po) [7] = test: Test Example 3: herbicidal effects by upland field foliage treatment; set-up: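 grade of growth control; 5 = at least 90%; 4 = 70 to 90%; 3 = 50 to 70%; 2 = 30 to 50%; 1 = 10 to 30%; 0 = under 10%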
Method: (§4) (Test on Herbicidal Effects by Upland Field Foliage Treatment)
(§5) In a plastic pot (surface area: 120 cm^2) filled with sand, barnyardgrass (Ec), Diaitaria ciliaris (Di), pale smartweed (Po), slender amaranth (Am), common lambsquarters (Ch) and rice flatsedge (Ci) were sown and covered with soil and were cultured in a green house for 2 weeks. […] The plants were then cultured in the green house, and the evaluation of the herbicidal effects was conducted on the 14th day after the treatment in accordance with the standards as identified in Table 47. Symbol—represents “not tested”.

rice flatsedge (Ci) [8] = test: as above; set-up: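 grade of growth control; 5 = at least 90%; 4 = 70 to 90%; 3 = 50 to 70%; 2 = 30 to 50%; 1 = 10 to 30%; 0 = under 10%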
Method: as §4, §5

barnyardgrass (Ec) [9] = test: as above; set-up: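 grade of growth control; 5 = at least 90%; 4 = 70 to 90%; 3 = 50 to 70%; 2 = 30 to 50%; 1 = 10 to 30%; 0 = under 10%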
Method: as §4, §5

[10] = tested on: common lambsquarters (Ch); test: as above; set-up: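 grade of growth control; 5 = at least 90%; 4 = 70 to 90%; 3 = 50 to 70%; 2 = 30 to 50%; 1 = 10 to 30%; 0 = under 10%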
Method: as §4, §5

Diaitaria ciliaris (Di) = test: as above; set-up: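 grade of growth control; 5 = at least 90%; 4 = 70 to 90%; 3 = 50 to 70%; 2 = 30 to 50%; 1 = 10 to 30%; 0 = under 10%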
Method: as §4, §5

slender amaranth (Am) [11] = test: as above; set-up: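 grade of growth control; 5 = at least 90%; 4 = 70 to 90%; 3 = 50 to 70%; 2 = 30 to 50%; 1 = 10 to 30%; 0 = under 10%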
Method: as §4, §5

[12] = 100 g active ingredient per 10 ares, evaluated 14th day after treatment
[13] = 100 g of the active ingredient per 10 ares, evaluated on the 14th day after treatment

SMILES | Herbicidal effects Po (pale smartweed (Po) [1]) | Herbicidal effects Ci (rice flatsedge (Ci) [2]) | Herbicidal effects Di (Digitaria ciliaris (Di)) | Herbicidal effects Ec (barnyardgrass (Ec) [3]) | Herbicidal effects Ch [4] | Herbicidal effects Am (slender amaranth (Am) [5]) | Herbicidal effects Sc (bulrush (Sc)) | Herbicidal effects Mo (monochoria (Mo)) | Herbicidal effects Ec (barnyardgrass (Ec) [6]) | further results
Cn1c(C(F)(F)F)ccc(-c2cc(Cl)c(Cl)cc2Cl)c1=O [Compound 1-186] | 5 | 5 | 5 | 5 | 5 | 5 | 4 | 5 | 5 | –
C=CC(=O)c1cc(-c2ccc(C(F)(F)F)n(C)c2=O)c(F)cc1Cl [Compound 1-198] | – | – | – | – | – | – | 5 | 5 | 5 | Herbicidal effects Po (pale smartweed (Po) [7]; [12]): 5; Herbicidal effects Ci (rice flatsedge (Ci) [8]; [12]): 5; Herbicidal effects Ec (barnyardgrass (Ec) [9]; [12]): 5; Herbicidal effects Ch [10, 12]: 5; Herbicidal effects Di (Diaitaria ciliaris (Di); [12]): 5; Herbicidal effects Am (slender amaranth (Am) [11]; [12]): 5
CNC(=O)COc1cc(-c2ccc(C(F)(F)F)n(C)c2=O)c(F)cc1Cl [Compound 1-209] | 5 | 5 | 4 | 4 | 5 | 5 | 5 | 5 | 5 | –
CNS(=O)(=O)c1cc(-c2ccc(C(F)(F)F)n(C)c2=O)ccc1Cl [Compound 1-257] | 5 | 5 | 5 | 5 | 5 | 5 | 5 | 5 | 5 | –
C#CCN1C(=O)CSc2cc(F)c(-c3ccc(C(F)(F)F)n(C)c3=O)cc21 [Compound 2-21] | 5 | 5 | 5 | 5 | 5 | 5 | 5 | 5 | 5 | –
Cn1c(C(F)(F)F)ccc(-c2cc3c(cc2Cl)OCC(=O)N3)c1=O [Compound 2-27] | 5 | 5 | 5 | 5 | 5 | 5 | 5 | 5 | 5 | –
COCc1cc2c(-c3ccc(C(F)(F)F)n(C)c3=O)c(Cl)cc(Cl)c2o1 [Compound 4-13] | 5 | 5 | 5 | 5 | 5 | 5 | 5 | 5 | 5 | –
Cn1c(C(F)(F)F)ccc(-c2cc(O)c(Cl)cc2F)c1=O [Compound No. 1-13] | – | – | – | – | – | – | 5 | 5 | 5 | Herbicidal effects Po (pale smartweed (Po) [7]; [13]): 5; Herbicidal effects Ci (rice flatsedge (Ci) [8]; [13]): 5; Herbicidal effects Ec (barnyardgrass (Ec) [9]; [13]): 5; Herbicidal effects Ch [10, 13]: 5; Herbicidal effects Di (Diaitaria ciliaris (Di); [13]): 5; Herbicidal effects Am (slender amaranth (Am) [11]; [13]): 5
CCOC(=O)COc1cc(-c2ccc(C(F)(F)F)n(C)c2=O)c(F)cc1Cl [Compound No. 1-19] | – | – | – | – | – | – | 5 | 5 | 5 | Herbicidal effects Po (pale smartweed (Po) [7]; [13]): 5; Herbicidal effects Ci (rice flatsedge (Ci) [8]; [13]): 5; Herbicidal effects Ec (barnyardgrass (Ec) [9]; [13]): 5; Herbicidal effects Ch [10, 13]: 5; Herbicidal effects Di (Diaitaria ciliaris (Di); [13]): 5; Herbicidal effects Am (slender amaranth (Am) [11]; [13]): 5
Cc1ccc(-c2ccc(Cl)cc2)c(=O)[nH]1 [comparative agent, reference compound] | 0 | 0 | 0 | 0 | 0 | 0 | – | – | – | –

— US6472348B1, “Pyridone derivatives and herbicides” (Kumiai Chemical Industry Co., Ltd., priority 1996, dated 2002)
